Test results: PubChem BioAssay (NCI)
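Results reflect a 48-hour exposure of cells in 96-well plates to compound at five concentrations. GI50 = concentration required for 50% inhibition of growth. The concentration for full growth arrest is given as TGI.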

Key:
Assay in all cases: growth of human tumour cells (NCI), 48 h
CCRF-CEM leukemia = tested on: CCRF-CEM leukemia
COLO 205 colon = tested on: COLO 205 colon
HL-60(TB) leukemia = tested on: HL-60(TB) leukemia
HOP-92 NSCLC = tested on: HOP-92 NSCLC
M14 melanoma = tested on: M14 melanoma
NCI-H226 lung = tested on: NCI-H226 lung
OVCAR-3 ovarian = tested on: OVCAR-3 ovarian
OVCAR-5 ovarian = tested on: OVCAR-5 ovarian
SNB-19 CNS = tested on: SNB-19 CNS
UACC-62 melanoma = tested on: UACC-62 melanoma

Row | Compound | TGI (CCRF-CEM leukemia) [µM] | TGI (COLO 205 colon) [µM] | TGI (HL-60(TB) leukemia) [µM] | TGI (HOP-92 NSCLC) [µM] | TGI (M14 melanoma) [µM] | TGI (NCI-H226 lung) [µM] | TGI (OVCAR-3 ovarian) [µM] | TGI (OVCAR-5 ovarian) [µM] | TGI (SNB-19 CNS) [µM] | TGI (UACC-62 melanoma) [µM] | GI50 (CCRF-CEM leukemia) [µM] | GI50 (HOP-92 NSCLC) [µM] | GI50 (NCI-H226 lung) [µM] | GI50 (OVCAR-5 ovarian) [µM]
1 | Cc1cc(C)c2c(=O)n(CN3CC4Nc5ccccc5C4C3)sc2n1 (stereo not drawn) | > 100 | 71.5 | 63.2 | > 100 | 63.1 | 81.1 | 98.5 | 42.4 | > 100 | 71.4 | – | – | – | –
2 | COc1cc(/C=C/C(=O)O)ccc1C(=O)O/C=C/c1ccccc1 | > 100 | > 100 | > 100 | > 100 | – | > 100 | > 100 | > 100 | > 100 | > 100 | – | – | – | –
3 | CC(C)=CCc1c2c(c3occ(-c4ccc(O)c(O)c4)c(=O)c3c1O)C=CC(C)(C)O2 | 2.71 | 4.04 | 0.246 | 5 | 3.5 | 34.6 | 3.59 | 21.1 | 5.02 | 14.2 | – | – | – | –
4 | CCN(CC)CCOC(NC(C)=O)(c1ccccc1)c1ccccc1 | > 100 | > 100 | > 100 | > 100 | > 100 | > 100 | – | > 100 | > 100 | > 100 | – | – | – | –
5 | COc1ccc(Nc2nc3ccc(C(F)(F)F)cc3nc2C(=O)O)cc1OC | – | > 100 | 64.1 | – | – | > 100 | 40.8 | > 100 | > 100 | > 100 | – | – | – | –
6 | C[n+]1c(-c2ccccc2)cc2/c(=C\c3ccc([N+](=O)[O-])cc3)c3ccccc3n21 | 8.04 | > 100 | 3.07 | > 41.6 | > 37.6 | 25.4 | 15.5 | 54.2 | > 36.1 | > 73.6 | – | – | – | –
7 | O=C(Nc1cccc2cnccc12)c1cc2c(cc1Cl)Sc1nccn1S2(=O)=O | – | 30.8 | 21.8 | 59.4 | > 100 | 38.5 | 56.7 | 77.8 | 65.3 | 26 | – | – | – | –
8 | N#Cc1c(-c2ccccc2)/c(=C\Nc2ccc(Cl)cc2)c(=O)n2c1nc1ccccc12 | 84.9 | > 100 | – | – | > 100 | > 100 | > 100 | > 100 | > 100 | – | – | – | – | –
9 | CCCCCCCCCC[C@H](O)[C@H]1CC[C@H]([C@H]2CC[C@H]([C@H](O)CC[C@H](O)CCCCCCC[C@@H](O)CC3=C[C@H](C)OC3=O)O2)O1 | > 100 | 78.5 | – | > 100 | > 100 | > 100 | > 100 | > 100 | > 100 | – | 3.12 | > 100 | > 100 | > 100
10 | OC[C@@H](O)[C@H]1NC[C@@H](O)[C@H]1O | > 100 | > 100 | > 100 | > 100 | > 100 | – | > 100 | > 100 | > 100 | > 100 | – | – | – | –
11 | COc1ccc(N2C(=O)c3c4c(c5c([nH]c6ncccc65)c3C2=O)CCC(C(C)(C)C)C4)cc1 (stereo not drawn) | > 100 | > 100 | > 100 | – | > 100 | > 100 | > 100 | – | > 100 | > 100 | – | – | – | –
12 | CC(=O)N/N=C1/NN(C(C)=O)C2(S1)C(=O)Nc1ccc(Br)cc12 (stereo not drawn) | > 100 | – | > 100 | > 100 | > 100 | > 100 | > 100 | > 100 | > 100 | > 100 | – | – | – | –
13 | CC(=O)NS(=O)(=O)c1ccc(NC(=O)c2c3ccccc3nc3ccccc23)cc1 | > 100 | > 100 | – | > 100 | > 100 | – | > 100 | > 100 | > 100 | > 100 | – | – | – | –
14 | CCCCOC(C)(C)/C=C/C(O)[C@](C)(O)[C@H]1[C@H](O)C[C@@]2(C)[C@@H]3CCc4c(cc(OC5OC(CO)C(O)C(O)C5O)c(O)c4C)C3(C)C(=O)C[C@]12C (stereo partly drawn) | > 100 | > 100 | – | > 100 | > 100 | > 100 | > 100 | > 100 | > 100 | > 100 | – | – | – | –
15 | COc1ccc(N[C@H](CSc2ccc(C)cc2)c2ccc(F)cc2)cc1 | > 100 | > 100 | – | – | > 100 | – | > 100 | > 100 | > 100 | > 100 | – | – | – | –
16 | O=C1CCC(=Nc2ccc(Cl)cc2)N1C(=O)COc1ccc(OCC(=O)N2C(=O)CSC2=Nc2ccc(Cl)cc2)cc1 | – | > 100 | > 100 | > 100 | > 100 | > 100 | > 100 | > 100 | > 100 | > 100 | – | – | – | –
17 | C/C(N=Nc1nc2ccccc2s1)=C1/C=CC=CN1O | > 100 | > 100 | – | 60.9 | > 100 | > 100 | 71.2 | 5.95 | > 100 | > 100 | – | – | – | –
18 | COc1cc(C2c3cc4c(cc3OC(NN=C(C)C)C2C)OCO4)cc(OC)c1O (stereo not drawn) | – | > 100 | – | > 100 | > 100 | > 100 | > 100 | > 100 | > 100 | > 100 | – | – | – | –
19 | Cc1cc(-c2nc3c(O)cccc3s2)ccc1N | 82.9 | > 100 | 44.5 | 58.9 | 39.5 | > 100 | > 100 | – | 41 | 26.7 | – | – | – | –
20 | NC(=O)C(=O)N/N=C1/c2ccccc2CC1C1(O)C(=O)Nc2c(Cl)cc(Cl)cc21 (stereo not drawn) | > 100 | > 100 | > 100 | > 100 | – | > 100 | > 100 | > 100 | > 100 | > 100 | – | – | – | –
21 | CCC12C[N+]3([O-])CCc4c([nH]c5ccccc45)C(C(=O)OC)(c4cc5c(cc4OC)N(C)C4C(O)(C(=O)OC)C(OC(C)=O)C6(CC)C=CCN7CCC54C76)CC(C3)C1O2 (stereo not drawn) | 6.87 | 4.44 | – | 21.3 | 17.8 | – | 1.3 | 33.3 | 11.9 | 16.2 | – | – | – | –
22 | COc1cc(/C=C2\C(=O)N(C(=O)Cc3ccccc3)N=C2C)ccc1O | > 100 | > 100 | > 100 | – | > 100 | > 100 | > 100 | > 100 | > 100 | – | – | – | – | –
